Results from patent publication US20240317777A1, “NOVEL MACROCYCLIC AMINOPYRAZOLE COMPOUNDS AS CDK2 INHIBITORS” (Accutar Biotechnology Inc., priority 2023, published 2024).
pIC50: −log10 of the molar value. Where two headings read alike, the source gives them in different places.

Assays:
[1] = tested on: Phospho-Rb (Ser807/811) in OVCAR3 cells; assay: Phospho-Rb expression inhibition in OVCAR3 cells quantified by In Cell Western; assay type: cell-based; details: Homo sapiens, OVCAR-3, 24 hours, read-out: OVCAR-3 pRb IC50
How it was run: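 In-cell western: after 24 h compound exposure at 37° C, fixed OVCAR3 cells co-stained for pRb Ser807/811 (800 nm channel) and total Rb (680 nm channel), imaged by LI-COR Odyssey.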

[2] = biological target: CDK4-CYCLIN D1 (Homo sapiens, UniProt P11802); assay: CDK protein kinase inhibition by ADP-Glo assay, CDK4-CYCLIN D1; assay type: biochemical; details: for pIC50: ADP-Glo, 1000 μM ATP, read-out: CDK4-CYCLIND1, IC50; for CDK2 Fold Sensitivity, CDK4 / CDK2 Fold selectivity, CDK4: CDK2 versus CDK4; for CDK2 Fold Sensitivity, CDK4: Table 8
Sequence of CDK4-CYCLIN D1 (P11802 whole entry): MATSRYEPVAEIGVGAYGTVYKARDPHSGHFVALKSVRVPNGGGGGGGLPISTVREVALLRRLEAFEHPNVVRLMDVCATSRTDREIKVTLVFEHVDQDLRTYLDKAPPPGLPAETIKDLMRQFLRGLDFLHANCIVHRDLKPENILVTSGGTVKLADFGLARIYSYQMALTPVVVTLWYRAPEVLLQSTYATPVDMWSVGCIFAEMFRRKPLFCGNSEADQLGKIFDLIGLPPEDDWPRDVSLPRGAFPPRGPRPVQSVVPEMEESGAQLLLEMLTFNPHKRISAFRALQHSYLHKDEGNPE
Sequence of CDK4-CYCLIN D1 (P24385 whole entry partner): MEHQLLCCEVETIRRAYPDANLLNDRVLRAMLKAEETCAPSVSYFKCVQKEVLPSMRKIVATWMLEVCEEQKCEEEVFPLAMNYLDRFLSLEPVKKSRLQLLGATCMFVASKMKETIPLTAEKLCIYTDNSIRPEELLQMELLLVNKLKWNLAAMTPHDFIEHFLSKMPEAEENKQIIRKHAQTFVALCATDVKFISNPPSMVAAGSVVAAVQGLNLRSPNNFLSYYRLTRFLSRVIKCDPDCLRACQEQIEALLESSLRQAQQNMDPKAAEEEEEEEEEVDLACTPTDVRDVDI
Protocol: (§1) CDK Protein Kinase Inhibition by ADP-Glo Assay
(§2) This ADP-Glo assay measures ADP formed from a kinase reaction and indirectly quantifies the phosphorylation of peptide substrates by the CDK/cyclin protein complexes. The typical assays were carried out in Nanosyn by combining kinase/cyclin complexes, substrates, compounds, and cofactors (ATP and Mg2+) in a well of a 384-well microtiter plate (Corning 3824) and incubating at 22° C. (Table 1). At the end of the incubation, the reaction is quenched, and conversion is detected by luminescence using the Promega ADP-Glo™ Kinase Assay kit (catalog #V9102).
(§3) Final assay buffer mixture contains: • 100 mM HEPES, pH 7.5 • 0.1% BSA • 0.01% Triton X-100 • 1 mM DTT • 5 mM MgCl2 • 10 μM Sodium Orthovanadate • 100 μM Beta-Glycerophosphate • 1000 μM Ultra Pure ATP (provided in the Promega ADP-Glo™ Kinase Assay kit) • 1% DMSO (from compound)
(§4) Upon completion, 5 μL of the ADP Glo reagent was added to each well and the plate was further incubated at room temperature for 45 minutes. 10 uL of the Kinase Detection Reagent was subsequently added to each well. After 10 minutes of incubation, the plate was read and analyzed on the BioTek Synergy microplate reader using BioTek Gen5 software.

[3] = biological target: CDK2-CYCLIN E1 (Homo sapiens, UniProt P24941); assay: CDK protein kinase inhibition by ADP-Glo assay, CDK2-CYCLIN E1; assay type: biochemical; details: ADP-Glo, 1000 μM ATP, read-out: CDK2-CYCLINE, IC50
Protocol: as §1, §2, §3, §4

[4] = biological target: CDK1-CYCLIN B (Homo sapiens, UniProt P06493); assay: CDK protein kinase inhibition by ADP-Glo assay, CDK1-CYCLIN B; assay type: biochemical; details: for pIC50: ADP-Glo, 1000 μM ATP, read-out: CDK1-CYCLINB, IC50; for CDK2 fold selectivity over CDK1 / CDK2 Fold selectivity, CDK1: CDK2 versus CDK1; for CDK2 fold selectivity over CDK1: Table 8
Sequence of CDK1-CYCLIN B (P06493 whole entry): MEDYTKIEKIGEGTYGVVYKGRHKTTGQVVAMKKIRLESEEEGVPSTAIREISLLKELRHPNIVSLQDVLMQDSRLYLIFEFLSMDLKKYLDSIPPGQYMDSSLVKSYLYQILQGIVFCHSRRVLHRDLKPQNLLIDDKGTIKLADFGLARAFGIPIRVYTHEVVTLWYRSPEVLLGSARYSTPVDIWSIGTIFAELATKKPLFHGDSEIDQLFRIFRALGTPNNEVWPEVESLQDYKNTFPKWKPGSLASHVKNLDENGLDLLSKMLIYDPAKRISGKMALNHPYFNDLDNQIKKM
Sequence of CDK1-CYCLIN B (P14635 whole entry partner): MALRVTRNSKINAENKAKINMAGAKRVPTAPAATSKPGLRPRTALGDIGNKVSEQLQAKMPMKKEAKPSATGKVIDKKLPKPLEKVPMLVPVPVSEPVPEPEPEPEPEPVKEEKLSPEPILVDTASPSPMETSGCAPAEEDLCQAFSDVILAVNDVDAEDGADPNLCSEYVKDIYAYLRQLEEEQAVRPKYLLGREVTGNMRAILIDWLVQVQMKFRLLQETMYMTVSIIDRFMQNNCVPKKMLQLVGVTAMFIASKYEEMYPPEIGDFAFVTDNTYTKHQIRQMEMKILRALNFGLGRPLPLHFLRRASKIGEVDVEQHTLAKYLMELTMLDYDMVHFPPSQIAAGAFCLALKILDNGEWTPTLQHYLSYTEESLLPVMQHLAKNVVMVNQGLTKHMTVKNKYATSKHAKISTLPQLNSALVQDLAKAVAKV
Protocol: as §1, §2, §3, §4

[5] = tested on: CCNE1-normal SKOV3 cells; assay: Cell growth inhibition of CCNE1-normal SKOV3 cells (CellTiter-Glo); assay type: cell-based; details: Homo sapiens, SK-OV-3, 144 h, 6 days
How it was run: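 Growth was measured by CellTiter-Glo luminescence after 6 days' compound exposure at 37 °C. Cells were plated one day before dosing at 1000 per well in medium with 10% FBS, and compounds were diluted from DMSO stocks.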

[6] = tested on: CCNE1-amplified OVCAR3 cells; assay: Cell growth inhibition of CCNE1-amplified OVCAR3 cells (CellTiter-Glo); assay type: cell-based; details: Homo sapiens, OVCAR-3, 144 h, 6 days
How it was run: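 Growth read-out was CellTiter-Glo luminescence, taken after 10 min at room temperature at the end of a 6-day compound exposure at 37 °C. Compounds were diluted from DMSO stocks across various concentrations.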

[7] = biological target: CDK9-CYCLIN T1 (Homo sapiens, UniProt P50750); assay: CDK protein kinase inhibition by ADP-Glo assay, CDK9-CYCLIN T1; assay type: biochemical; details: for pIC50: ADP-Glo, 1000 μM ATP, read-out: CDK9-CYCLINT1, IC50; for CDK2 Fold Sensitivity, CDK9 / CDK2 Fold selectivity, CDK9: CDK2 versus CDK9; for CDK2 Fold Sensitivity, CDK9: Table 8
Sequence of CDK9-CYCLIN T1 (P50750 whole entry): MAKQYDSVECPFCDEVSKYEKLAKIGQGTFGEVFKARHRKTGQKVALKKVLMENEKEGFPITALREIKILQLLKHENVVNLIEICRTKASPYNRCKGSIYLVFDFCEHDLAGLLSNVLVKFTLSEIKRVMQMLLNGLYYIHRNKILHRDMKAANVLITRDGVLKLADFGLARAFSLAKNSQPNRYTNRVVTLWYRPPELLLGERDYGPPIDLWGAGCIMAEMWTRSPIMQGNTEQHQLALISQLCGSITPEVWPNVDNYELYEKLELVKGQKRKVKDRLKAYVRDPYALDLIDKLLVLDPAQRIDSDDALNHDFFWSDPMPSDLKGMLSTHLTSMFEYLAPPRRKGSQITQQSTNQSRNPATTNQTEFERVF
Sequence of CDK9-CYCLIN T1 (O60563 whole entry partner): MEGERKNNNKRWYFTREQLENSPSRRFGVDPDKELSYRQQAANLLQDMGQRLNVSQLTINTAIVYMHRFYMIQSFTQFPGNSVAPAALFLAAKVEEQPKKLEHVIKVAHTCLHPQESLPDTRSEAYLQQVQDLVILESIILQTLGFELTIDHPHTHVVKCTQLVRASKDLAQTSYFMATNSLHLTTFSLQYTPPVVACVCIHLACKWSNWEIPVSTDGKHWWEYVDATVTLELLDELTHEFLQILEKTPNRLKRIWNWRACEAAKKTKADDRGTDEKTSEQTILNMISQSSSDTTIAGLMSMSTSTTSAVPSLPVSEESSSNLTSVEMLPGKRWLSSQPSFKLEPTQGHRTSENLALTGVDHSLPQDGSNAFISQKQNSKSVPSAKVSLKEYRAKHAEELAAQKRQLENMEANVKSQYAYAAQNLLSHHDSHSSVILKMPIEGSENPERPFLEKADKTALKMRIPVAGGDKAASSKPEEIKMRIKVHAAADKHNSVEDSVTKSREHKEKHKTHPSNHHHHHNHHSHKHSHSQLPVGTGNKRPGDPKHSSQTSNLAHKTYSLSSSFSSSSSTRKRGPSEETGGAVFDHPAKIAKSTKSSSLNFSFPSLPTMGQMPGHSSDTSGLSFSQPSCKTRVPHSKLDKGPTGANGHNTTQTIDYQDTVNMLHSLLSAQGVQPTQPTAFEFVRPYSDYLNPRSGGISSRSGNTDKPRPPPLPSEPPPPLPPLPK
Protocol: as §1, §2, §3, §4

[8] = biological target: CDK6-CYCLIN D3 (Homo sapiens, UniProt Q00534); assay: CDK protein kinase inhibition by ADP-Glo assay, CDK6-CYCLIN D3; assay type: biochemical; details: for pIC50: ADP-Glo, 1000 μM ATP, read-out: CDK6-CYCLIND3, IC50; for CDK2 Fold Sensitivity, CDK6 / CDK2 Fold selectivity, CDK6: CDK2 versus CDK6; for CDK2 Fold Sensitivity, CDK6: Table 8
Sequence of CDK6-CYCLIN D3 (Q00534 whole entry): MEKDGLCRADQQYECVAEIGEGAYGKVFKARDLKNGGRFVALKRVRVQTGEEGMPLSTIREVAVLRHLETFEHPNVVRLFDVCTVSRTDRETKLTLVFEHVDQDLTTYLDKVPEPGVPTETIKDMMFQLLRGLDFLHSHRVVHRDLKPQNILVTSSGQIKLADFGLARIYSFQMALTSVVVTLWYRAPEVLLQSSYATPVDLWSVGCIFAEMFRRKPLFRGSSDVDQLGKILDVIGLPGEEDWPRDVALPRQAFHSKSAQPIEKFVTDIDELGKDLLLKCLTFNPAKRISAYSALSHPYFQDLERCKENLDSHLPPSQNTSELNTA
Sequence of CDK6-CYCLIN D3 (P30281 whole entry partner): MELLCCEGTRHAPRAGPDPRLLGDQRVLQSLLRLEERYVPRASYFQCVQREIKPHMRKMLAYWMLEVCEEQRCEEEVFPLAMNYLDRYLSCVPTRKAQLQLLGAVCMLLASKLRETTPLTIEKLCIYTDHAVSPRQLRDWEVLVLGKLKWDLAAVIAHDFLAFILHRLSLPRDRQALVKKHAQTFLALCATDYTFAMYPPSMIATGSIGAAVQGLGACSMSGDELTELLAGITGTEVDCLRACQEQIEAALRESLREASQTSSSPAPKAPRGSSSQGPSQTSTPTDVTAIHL
Protocol: as §1, §2, §3, §4

Row | SMILES | pIC50 [1] | pIC50 ([2]; Table 7) | CDK2 Fold Sensitivity, CDK4 [2] | pIC50 ([3]; Table 7) | pIC50 ([4]; Table 7) | CDK2 fold selectivity over CDK1 [4] | pIC50 [5] | pIC50 [6] | pIC50 ([7]; Table 7) | CDK2 Fold Sensitivity, CDK9 [7] | pIC50 ([8]; Table 7) | CDK2 Fold Sensitivity, CDK6 [8] | other results
1 | C[C@H]1CCCOc2cc(ccn2)Nc2cc([nH]n2)[C@H]2CC[C@H](C2)OC(=O)N1 [Compound 9, (1^1S,1^3R,9S,Z)-9-methyl-2^1H-5,12-dioxa-3,10-diaza-4(4,2)-pyridina-2(3,5)-pyrazola-1(1,3)-cyclopentanacyclododecaphan-11-one] | 7.30 to 8.00 | < 6.30 | B (B, >100 and ≤500) | ≥ 8.00 | 6.30 to 7.00 | C (C, >50 and ≤100) | < 5.90 | 7.30 to 8.00 | < 6.30 | B (B, >100 and ≤500) | < 6.30 | B (B, >100 and ≤500) | pIC50 ([2]; Table 29): < 6.30; CDK2 Fold selectivity, CDK4 ([2]; Table 30): C (C, >50 and ≤100); pIC50 ([3]; Table 29): 7.30 to 8.00; pIC50 ([4]; Table 29): 6.30 to 7.00; CDK2 Fold selectivity, CDK1 ([4]; Table 30): E (E, <20); pIC50 ([7]; Table 29): < 6.30; CDK2 Fold selectivity, CDK9 ([7]; Table 30): C (C, >50 and ≤100); pIC50 ([8]; Table 29): < 6.30; CDK2 Fold selectivity, CDK6 ([8]; Table 30): C (C, >50 and ≤100)
2 | C[C@@H]1CCCOc2cc(ccn2)Nc2cc([nH]n2)[C@H]2CC[C@H](C2)OC(=O)N1 [Compound 10, (1^1S,1^3R,9R,Z)-9-methyl-2^1H-5,12-dioxa-3,10-diaza-4(4,2)-pyridina-2(3,5)-pyrazola-1(1,3)-cyclopentanacyclododecaphan-11-one] | 7.30 to 8.00 | 6.30 to 7.00 | C (C, >50 and ≤100) | ≥ 8.00 | 6.30 to 7.00 | D (D, >20 and ≤50) | < 5.90 | 6.60 to 7.30 | < 6.30 | B (B, >100 and ≤500) | 6.30 to 7.00 | C (C, >50 and ≤100) | –
3 | CC1(C)CCCOc2cc(ccn2)Nc2cc([nH]n2)[C@H]2CC[C@H](C2)OC(=O)N1 [Compound 13, (1^1S,1^3R,Z)-9,9-dimethyl-2^1H-5,12-dioxa-3,10-diaza-4(4,2)-pyridina-2(3,5)-pyrazola-1(1,3)-cyclopentanacyclododecaphan-11-one] | 8.00 to 8.70 | 7.00 to 7.30 | C (C, >50 and ≤100) | ≥ 8.00 | 7.30 to 8.00 | E (E, <20) | 5.90 to 6.60 | 8.00 to 8.70 | 7.00 to 7.30 | C (C, >50 and ≤100) | 7.00 to 7.30 | D (D, >20 and ≤50) | –
4 | O=C1NCCCCOc2cc(cc(C(F)F)n2)Nc2cc([nH]n2)[C@H]2CC[C@H](C2)O1 [Compound 16, (1^1S,1^3R,Z)-46-(difluoromethyl)-2^1H-5,12-dioxa-3,10-diaza-4(4,2)-pyridina-2(5,3)-pyrazola-1(1,3)-cyclopentanacyclododecaphan-11-one] | 7.30 to 8.00 | < 6.30 | B (B, >100 and ≤500) | ≥ 8.00 | 7.00 to 7.30 | E (E, <20) | < 5.90 | 7.30 to 8.00 | < 6.30 | B (B, >100 and ≤500) | < 6.30 | B (B, >100 and ≤500) | –
5 | O=C1NCCCCCc2cc(cc(C(F)F)n2)Nc2cc([nH]n2)[C@H]2CC[C@H](C2)O1 [Compound 17, (1^1S,1^3R,Z)-4^6-(difluoromethyl)-2^1H-12-oxa-3,10-diaza-4(4,2)-pyridina-2(3,5)-pyrazola-1(1,3)-cyclopentanacyclododecaphan-11-one] | 8.00 to 8.70 | 6.30 to 7.00 | B (B, >100 and ≤500) | ≥ 8.00 | ≥ 8.00 | E (E, <20) | 5.90 to 6.60 | 8.00 to 8.70 | 7.00 to 7.30 | C (C, >50 and ≤100) | 7.00 to 7.30 | B (B, >100 and ≤500) | –
6 | O=C1NC23CC(COc4cc(cc(C(F)F)n4)Nc4cc([nH]n4)[C@H]4CC[C@H](C4)O1)(C2)C3 [Compound 19, (1^1S,1^3R,Z)-46-(difluoromethyl)-2^1H-5,10-dioxa-3,8-diaza-4(4,2)-pyridina-2(3,5)-pyrazola-7(1,3)-bicyclo[1.1.1]pentana-1(1,3)-cyclopentanacyclodecaphan-9-one] | 8.00 to 8.70 | – | – | – | – | – | < 5.90 | 7.30 to 8.00 | – | – | – | – | pIC50 ([2]; Table 11): < 6.30; CDK2 Fold selectivity, CDK4 ([2]; Table 12): A (A, ≥500); pIC50 ([3]; Table 11): ≥ 8.00; pIC50 ([4]; Table 11): 7.00 to 7.30; CDK2 Fold selectivity, CDK1 ([4]; Table 12): D (D, >20 and ≤50); pIC50 ([7]; Table 11): < 6.30; CDK2 Fold selectivity, CDK9 ([7]; Table 12): A (A, ≥500); pIC50 ([8]; Table 11): < 6.30; CDK2 Fold selectivity, CDK6 ([8]; Table 12): B (B, >100 and ≤500)
